# Measurements taken from PMC2784635 (Bioorganic & medicinal chemistry, 2008).
# Test system: strobilurin resistant strain of Plasmopara viticola
# Assay: cross-resistance test on small vine plants in the glasshouse
structure (smiles),measurement,value
"COC(=O)CNC(=O)/C=C\C/C=C\NC(=O)/C=C(C)/C=C/[C@H](C)[C@H](OC)[C@H](C)[C@H](/C=C/c1ccccc1)OC [Compound 8, crocacin A]",cross-resistance to strobilurin resistant Plasmopara viticola,little or no cross-resistance
